Read-outs that look alike come from different tables or passages of the source.

Results on 16 compounds are retold here after patent US20140148400A1, “CARBONIC ANHYDRASE INHIBITORS WITH […] ACTIVITY” (METASIGNAL THERAPEUTICS INC., priority 2010, published 2014).

Data set [1] concerns the target hCA II (Homo sapiens, UniProt P00918). Kind of data set: In vitro CA inhibition assay, hCA II. In kind it is biochemical.
Data set [2] addresses hCA I (Homo sapiens, UniProt P00915). Kind of data set: In vitro CA inhibition assay, hCA I. In kind it is biochemical. Conditions: unit from table title.
The target in data set [3] is hCA IX (Homo sapiens, UniProt Q16790). In words: In vitro CA inhibition assay, hCA IX. The data set is classed as biochemical. Conditions: cells with nM printed beside the value.
Data set [4] relates to human CA isoforms. Conditions: background statement; cited from earlier work.
Data set [5] concerns 4T1 mammary tumor cells. The following applies: 2×10^5 4T1 cells i.v.; daily i.p. injection for 6 days from 24 hours post inoculation; imaged 24 hours after final dose.
In data set [6] the test system is 4T1 primary tumors. Kind of data set: Growth of orthotopically implanted 4T1 primary tumors. In kind it is in vivo, female BALB/c mice. The following applies: 1×10^6 cells/mouse orthotopic; tumors established 14 days; daily i.p. for 14 days.
[7] abbreviates: unit from table title, read-out: hCA II inhibition data in KI.

Chain of hCA I (P00915 whole entry): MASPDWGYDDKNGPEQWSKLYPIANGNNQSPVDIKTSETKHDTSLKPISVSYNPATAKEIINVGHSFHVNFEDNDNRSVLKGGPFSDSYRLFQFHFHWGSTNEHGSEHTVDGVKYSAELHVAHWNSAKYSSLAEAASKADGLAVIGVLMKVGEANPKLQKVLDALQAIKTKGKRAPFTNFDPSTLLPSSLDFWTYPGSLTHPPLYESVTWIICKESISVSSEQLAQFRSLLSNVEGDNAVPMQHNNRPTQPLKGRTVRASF

Take `Cc1cc(=O)oc2cc(OC3OC(CO)C(O)C(O)C3O)ccc12` (single isomer, unassigned) [MST-202, 4-methylumbellifer-7-yl- -D-glucopyranoside]: the Ki in data set [1] (setting [7]) is above 100 µM; in data set [2], 1 µM. Turning to `Cc1cc(=O)oc2cc(OC3OC(CO)C(O)C(O)C3O)ccc12` (single isomer, unassigned) [MST-203, 4-methylumbellifer-7-yl-1-D-galactopyranoside], the Ki in data set [1] (setting [7]) was found to be 77 µM; in data set [2] it was 0.59 µM; in data set [3], 93 nM.

As to `COc1cc2oc(=O)ccc2cc1[C@@H](O)CC(C)C` [6-(1S-hydroxy-3-methylbutyl)-7-methoxy-2H-chromen-2-one], in data set [4], the “inhibition of all investigated human CA isoforms” value is reported as “nonselective, potent inhibitors”. On to `Cc1cc(=O)oc2cc(OC3OCC(O)C(O)C3O)ccc12` [MST-201, 4-methylumbellifer-7-yl- -D-xylopyranoside], for which the melting point amounted to 223 °C.

On to `Cc1cc(=O)oc2cc(O[C@H]3O[C@H](CO)[C@@H](O)[C@H](O)[C@@H]3O)ccc12` [MST-204, 4-methylumbellifer-7-yl-α-D-mannopyranoside], for which the “formation of metastases by 4T1 mammary tumor cells (tumor-derived bioluminescence)” value in data set [5] was “reduced the formation of metastases”. In the case of `Cc1cc(=O)oc2cc(OC3OC(C)C(O)C(O)C3O)ccc12` [MST-205, 4-methylumbellifer-7-yl- -L-rhamnopyranoside], the figures for the inhibition constant (Ki) in data set [1] (setting [7]), in data set [2] and in data set [3] were above 100 µM, above 100 µM and 201 nM, respectively. In addition, in data set [6], the “growth of 4T1 primary tumors (caliper-based measurement)” value is recorded as “Attenuates the Growth of 4T1 Primary Tumors”. The “formation of metastases by 4T1 mammary tumor cells (tumor-derived bioluminescence)” value in data set [5] is “inhibits the formation of metastases”. For `C#CCOc1ccc2ccc(=S)oc2c1` [MST-217, 7-(prop-2-ynyloxy)-2H-chromene-2-thione], the melting point is 97 to 101 °C.

`O=c1ccc2cc(OCc3cn(-c4ccccc4Cl)nn3)ccc2o1` [MST-225, 6-((1-(2-chlorophenyl)-1H-1,2,3-triazol-4-yl)methoxy)-2H-chromen-2-one] gave a melting point of 164 to 166 °C.

Turning to `CC(C)(C)[Si](C)(C)Oc1ccc2oc(=O)ccc2c1` [MST-230, 6-(tert-Butyldimethylsilyloxy)-2H-chromen-2-one], the inhibition constant Ki in data set [1] (setting [7]) was above 200 µM.

With `CC(C)(C)[Si](C)(C)Oc1ccc2ccc(=O)oc2c1` [MST-231, 7-(tert-Butyldimethylsilyloxy)-2H-chromen-2-one], the Ki in data set [1] is above 200 µM. For `Oc1ccc2oc(=S)ccc2c1` [MST-233, 6-Hydroxy-2H-chromene-2-thione], the Ki in data set [1] (setting [7]) was above 200 µM. As for `C=CCOc1ccc2oc(=S)ccc2c1` [MST-240, 6-(Allyloxy)-2H-chromene-2-thione], the inhibitory constant (Ki) in data set [1] (setting [7]) is above 200 µM. `N#Cc1cc2ccc(O)cc2oc1=O` [MST-247]: the Ki in data set [2] came to 104 µM. Regarding `Cc1cc(=O)oc2cc(OCCn3c([N+](=O)[O-])cnc3C)ccc12` [MST-248, 7-O-[2-(2-methyl-5-nitro-imidazol-1-yl)ethyl]-4-methylcoumarine], the melting point lay in the range of 238 to 240 °C. Consider `Cc1cc(=O)oc2ccc(OCCn3c([N+](=O)[O-])cnc3C)cc12` [MST-249, 6-O-[2-(2-methyl-5-nitro-imidazol-1-yl)ethyl]-4-methylcoumarine], for which the melting point lay in the range of 190 to 191 °C. On to `O=c1ccc2ccccc2o1` [unsubstituted coumarin, coumarin], for which the “inhibition of all investigated human CA isoforms” value in data set [4] was “nonselective, potent inhibitors”.

As usually defined, the Ki is the dissociation constant of the complex between target and ligand, obtained from inhibition or displacement. The term melting point denotes the temperature, or range, at which the solid turns liquid.
